Measured values reported in patent US9833497B2, “Human originated EGF domain proteins and use of the same” (CHENGDU SOURCEBIO LIMITED-LIABILITY COMPANY, priority 2013, dated 2017).

Assays:
Format in all cases: cell-based
E. coli DH5α = assay: Antibacterial activity: MIC and growth curve against E. coli DH5α in 96-well plate; details: minimal inhibitory concentration against E. coli DH5α; 96-well plate, 5×10^5 CFU/mL, 37° C., judged after 8 h
Method in brief: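 Log-phase bacteria (OD600 ~0.5) resuspended in LB at 5×10^5 CFU/mL, exposed to recombinant protein at 50, 25, 12.5 μg/mL final in triplicate, 37 °C shaking at 175 rpm. OD600 read every 30 min; MIC is lowest concentration showing no growth.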

E. coli BL21 = assay: MIC against Gram-negative bacteria: E. coli BL21; details: E. coli BL21; for MIC (μg/mL) E. coli BL21 / MIC: 10 h cultivation at 37° C.
Method in brief: (§1)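 Growth inhibition by human EGF domain proteins was scored in LB liquid culture seeded at 5×10^5 CFU/mL. Protein was applied as a two-fold dilution series in triplicate, with shaking incubation at 37° C; MIC is the lowest concentration giving no growth.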

Pseudomonas aeruginosa = assay: MIC against Gram-negative bacteria: Pseudomonas aeruginosa; details: for MIC (μg/mL) P. aeruginosa / MIC: 10 h cultivation at 37° C., P. aeruginosa
Method in brief: as §1

Klebsiella pneumonia = assay: MIC against Gram-negative bacteria: Klebsiella pneumonia; details: for MIC (μg/mL) K. pneumonia / MIC: 10 h cultivation at 37° C., K. pneumonia
Method in brief: as §1

Enterobacter cloacae = assay: MIC against Gram-negative bacteria: Enterobacter cloacae; details: for MIC (μg/mL) E. cloacae / MIC: 10 h cultivation at 37° C., E. cloacae
Method in brief: as §1

Aeromonas hydrophila = assay: MIC against Gram-negative bacteria: Aeromonas hydrophila; details: for MIC (μg/mL) A. hydrophila / MIC: 10 h cultivation at 37° C., A. hydrophila
Method in brief: as §1

Citrobacter diversus = assay: MIC against Gram-negative bacteria: Citrobacter diversus; details: for MIC (μg/mL) C. diversus / MIC: 10 h cultivation at 37° C., C. diversus
Method in brief: as §1

Moraxella catarrhalis = assay: MIC against Gram-negative bacteria: Moraxella catarrhalis; details: for MIC (μg/mL) M. catarrhalis / MIC: 10 h cultivation at 37° C., M. catarrhalis
Method in brief: as §1

Proteus mirabilis = assay: MIC against Gram-negative bacteria: Proteus mirabilis; details: for MIC (μg/mL) P. mirabilis / MIC: 10 h cultivation at 37° C., P. mirabilis
Method in brief: as §1

Proteus vulgaris = assay: MIC against Gram-negative bacteria: Proteus vulgaris; details: for MIC (μg/mL) P. vulgaris / MIC: 10 h cultivation at 37° C., P. vulgaris
Method in brief: as §1

Serratia marcescens = assay: MIC against Gram-negative bacteria: Serratia marcescens; details: for MIC (μg/mL) S. marcescens / MIC: 10 h cultivation at 37° C., S. marcescens
Method in brief: as §1

PRT871 (CYCNPLGSIHDRCNGSGFCECKTGTTGPKCDECLPGNSWHYGCQPNVCDN; listed as Homo sapiens)
MIC (E. coli DH5α): 12.5 µg/mL | MIC (μg/mL) E. coli BL21 (E. coli BL21; 5×10^5 CFU/mL): 25 µg/mL | MIC (μg/mL) P. aeruginosa (Pseudomonas aeruginosa; 5×10^5 CFU/mL): 50 µg/mL | MIC (μg/mL) K. pneumonia (Klebsiella pneumonia; 5×10^5 CFU/mL): 12.5 µg/mL | MIC (μg/mL) E. cloacae (Enterobacter cloacae; 5×10^5 CFU/mL): 12.5 µg/mL | MIC (μg/mL) A. hydrophila (Aeromonas hydrophila; 5×10^5 CFU/mL): 12.5 µg/mL | MIC (μg/mL) C. diversus (Citrobacter diversus; 5×10^5 CFU/mL): 12.5 µg/mL | MIC (μg/mL) M. catarrhalis (Moraxella catarrhalis; 5×10^5 CFU/mL): 25 µg/mL | MIC (μg/mL) P. mirabilis (Proteus mirabilis; 5×10^5 CFU/mL): 12.5 µg/mL | MIC (μg/mL) P. vulgaris (Proteus vulgaris; 5×10^5 CFU/mL): 50 µg/mL | MIC (μg/mL) S. marcescens (Serratia marcescens; 5×10^5 CFU/mL): 12.5 µg/mL

PRT790 (HGPQCEQRCPCQNGGVCHHVTGECSCPSGWMGTVCG; listed as Homo sapiens)
MIC (E. coli DH5α): 25 µg/mL | MIC (μg/mL) E. coli BL21 (E. coli BL21; 5×10^5 CFU/mL): 50 µg/mL | MIC (μg/mL) P. aeruginosa (Pseudomonas aeruginosa; 5×10^5 CFU/mL): 25 µg/mL | MIC (μg/mL) K. pneumonia (Klebsiella pneumonia; 5×10^5 CFU/mL): 25 µg/mL | MIC (μg/mL) E. cloacae (Enterobacter cloacae; 5×10^5 CFU/mL): 12.5 µg/mL | MIC (μg/mL) A. hydrophila (Aeromonas hydrophila; 5×10^5 CFU/mL): 25 µg/mL | MIC (μg/mL) C. diversus (Citrobacter diversus; 5×10^5 CFU/mL): 50 µg/mL | MIC (μg/mL) M. catarrhalis (Moraxella catarrhalis; 5×10^5 CFU/mL): 25 µg/mL | MIC (μg/mL) P. mirabilis (Proteus mirabilis; 5×10^5 CFU/mL): 12.5 µg/mL | MIC (μg/mL) P. vulgaris (Proteus vulgaris; 5×10^5 CFU/mL): 50 µg/mL | MIC (μg/mL) S. marcescens (Serratia marcescens; 5×10^5 CFU/mL): 12.5 µg/mL

PRT201 (NMSSCPLDSKGKVCSGHGVCSNEATCICDFTWAGTDCS; listed as Homo sapiens)
MIC (E. coli DH5α): 50 µg/mL | MIC (μg/mL) E. coli BL21 (E. coli BL21; 5×10^5 CFU/mL): 12.5 µg/mL | MIC (μg/mL) P. aeruginosa (Pseudomonas aeruginosa; 5×10^5 CFU/mL): 50 µg/mL | MIC (μg/mL) K. pneumonia (Klebsiella pneumonia; 5×10^5 CFU/mL): 12.5 µg/mL | MIC (μg/mL) E. cloacae (Enterobacter cloacae; 5×10^5 CFU/mL): 50 µg/mL | MIC (μg/mL) A. hydrophila (Aeromonas hydrophila; 5×10^5 CFU/mL): 12.5 µg/mL | MIC (μg/mL) C. diversus (Citrobacter diversus; 5×10^5 CFU/mL): 50 µg/mL | MIC (μg/mL) M. catarrhalis (Moraxella catarrhalis; 5×10^5 CFU/mL): 12.5 µg/mL | MIC (μg/mL) P. mirabilis (Proteus mirabilis; 5×10^5 CFU/mL): 25 µg/mL | MIC (μg/mL) P. vulgaris (Proteus vulgaris; 5×10^5 CFU/mL): 50 µg/mL | MIC (μg/mL) S. marcescens (Serratia marcescens; 5×10^5 CFU/mL): 25 µg/mL

PRT1216 (YPDACKRSPCQHGGSCTGLPSGGYQCTCLSQFTGRNCE; listed as Homo sapiens)
MIC (E. coli DH5α): 50 µg/mL | MIC against E. coli BL21 (E. coli BL21; 96-well plate, 5×10^5 CFU/mL, 37° C., 10 h): 12.5 µg/mL | MIC against P. aeruginosa (Pseudomonas aeruginosa; Pseudomonas aeruginosa, 96-well plate, 5×10^5 CFU/mL, 37° C., 10 h): 50 µg/mL | MIC against K. pneumonia (Klebsiella pneumonia; Klebsiella pneumonia, 96-well plate, 5×10^5 CFU/mL, 37° C., 10 h): 12.5 µg/mL | MIC against E. cloacae (Enterobacter cloacae; Enterobacter cloacae, 96-well plate, 5×10^5 CFU/mL, 37° C., 10 h): 25 µg/mL | MIC against A. hydrophila (Aeromonas hydrophila; Aeromonas hydrophila, 96-well plate, 5×10^5 CFU/mL, 37° C., 10 h): 25 µg/mL | MIC against C. diversus (Citrobacter diversus; Citrobacter diversus, 96-well plate, 5×10^5 CFU/mL, 37° C., 10 h): 50 µg/mL | MIC against M. catarrhalis (Moraxella catarrhalis; Moraxella catarrhalis, 96-well plate, 5×10^5 CFU/mL, 37° C., 10 h): 12.5 µg/mL | MIC against P. mirabilis (Proteus mirabilis; Proteus mirabilis, 96-well plate, 5×10^5 CFU/mL, 37° C., 10 h): 50 µg/mL | MIC against P. vulgaris (Proteus vulgaris; Proteus vulgaris, 96-well plate, 5×10^5 CFU/mL, 37° C., 10 h): 25 µg/mL | MIC against S. marcescens (Serratia marcescens; Serratia marcescens, 96-well plate, 5×10^5 CFU/mL, 37° C., 10 h): 12.5 µg/mL

PRT1029 (PANPCEDGSHTCAPAGQARCVHHGGSTFSCACLPGYAGDGHQCT; listed as Homo sapiens)
MIC (E. coli DH5α): 12.5 µg/mL | MIC (E. coli BL21): 12.5 µg/mL | MIC (Pseudomonas aeruginosa): 50 µg/mL | MIC (Klebsiella pneumonia): 12.5 µg/mL | MIC (Enterobacter cloacae): 50 µg/mL | MIC (Aeromonas hydrophila): 12.5 µg/mL | MIC (Citrobacter diversus): 50 µg/mL | MIC (Moraxella catarrhalis): 12.5 µg/mL | MIC (Proteus mirabilis): 50 µg/mL | MIC (Proteus vulgaris): 12.5 µg/mL | MIC (Serratia marcescens): 50 µg/mL

PRT1038 (FDMPCDETLCSADSFCVNDYTWGGSRCQCTLGKGGESCS; listed as Homo sapiens)
MIC (E. coli DH5α): 50 µg/mL | MIC (E. coli BL21): 12.5 µg/mL | MIC (Pseudomonas aeruginosa): 50 µg/mL | MIC (Klebsiella pneumonia): 50 µg/mL | MIC (Enterobacter cloacae): 50 µg/mL | MIC (Aeromonas hydrophila): 12.5 µg/mL | MIC (Citrobacter diversus): 25 µg/mL | MIC (Moraxella catarrhalis): 50 µg/mL | MIC (Proteus mirabilis): 50 µg/mL | MIC (Proteus vulgaris): 12.5 µg/mL | MIC (Serratia marcescens): 25 µg/mL
